Results published in patent US9403823B2, “Protein kinase inhibitors” (ORIBASE PHARMA, priority 2012, dated 2016).
Marks after values point to notes of the source that are not given here.

Assays:
[1] = tested on: BxPC-3 cell line; assay: In vitro cell proliferation assay (MTT), BxPC-3; type: cell-based; conditions: Homo sapiens, BXPC-3, 72 h; read-out: EC50, anti-proliferative activity
Procedure: (§1) 2) In Vitro Cell Proliferation Assays (Table 22 to Table 35)
(§2) Cancer cell lines (5×10^3 cells per well) or HUVEC (1×10^4 cells per well) or HRMEC (1×10^4 cells per well) were distributed in 96-well plates and incubating in duplicate with escalating concentrations (10 nM to 3 μM) of compounds for 72 hr. Cell proliferation was measured using MTT (3[4,5-dimethylthiazol-2-yl]-2,5-diphenyltetrazolium bromide).

[2] = tested on: MDA-MB-231 cell line; assay: In vitro cell proliferation assay (MTT), MDA-MB-231; type: cell-based; conditions: Homo sapiens, MDA-MB-231, 72 h; read-out: EC50, anti-proliferative activity
In short: (§3)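 Seed cells (HRMEC 1×10^4/well; cancer lines 5×10^3/well), add compounds at escalating concentrations from 10 nM to 3 μM in duplicate, incubate 72 hr, then measure proliferation with MTT.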

[3] = target: T1, BRAF (Homo sapiens, UniProt P15056); assay: In vitro kinase assay (Z'-LYTE), BRAF; type: biochemical; conditions: read-out: % of inhibition of the kinase compared to the control
T1 construct: purchased Invitrogen
T1 sequence (P15056 whole entry): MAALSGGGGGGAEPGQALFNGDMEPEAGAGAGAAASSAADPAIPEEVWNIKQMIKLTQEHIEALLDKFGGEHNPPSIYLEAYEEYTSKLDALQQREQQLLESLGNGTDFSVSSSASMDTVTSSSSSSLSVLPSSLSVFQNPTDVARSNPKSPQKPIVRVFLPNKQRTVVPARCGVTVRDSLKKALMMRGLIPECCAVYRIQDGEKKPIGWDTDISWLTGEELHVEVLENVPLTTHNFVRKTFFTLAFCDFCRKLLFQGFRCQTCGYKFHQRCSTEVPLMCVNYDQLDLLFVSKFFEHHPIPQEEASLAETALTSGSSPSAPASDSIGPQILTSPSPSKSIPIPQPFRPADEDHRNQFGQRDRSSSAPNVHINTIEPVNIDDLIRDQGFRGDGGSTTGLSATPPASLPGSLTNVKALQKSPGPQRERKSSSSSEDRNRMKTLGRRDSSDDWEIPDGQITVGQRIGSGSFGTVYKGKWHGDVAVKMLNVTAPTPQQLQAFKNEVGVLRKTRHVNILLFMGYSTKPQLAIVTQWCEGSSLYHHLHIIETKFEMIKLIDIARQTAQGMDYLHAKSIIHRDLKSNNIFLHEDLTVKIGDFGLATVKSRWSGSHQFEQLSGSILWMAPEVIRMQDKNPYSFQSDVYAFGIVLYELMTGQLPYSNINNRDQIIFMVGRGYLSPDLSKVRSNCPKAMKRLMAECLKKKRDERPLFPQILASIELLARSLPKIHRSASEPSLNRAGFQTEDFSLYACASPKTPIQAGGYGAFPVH
In short: (§4)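 Peptide/kinase mix and ATP (at apparent Km) were combined in kinase buffer with compound at 100 nM, or 10 μM against ABL and its T315I mutant. Non-phosphorylated peptide was then proteolytically cleaved, and donor-to-acceptor emission ratio gave the extent of phosphorylation.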

[4] = tested on: H1975 cell line; assay: In vitro cell proliferation assay (MTT), H1975; type: cell-based; conditions: Homo sapiens, NCI-H1975, 72 h; read-out: EC50, anti-proliferative activity
In short: as §3

[5] = tested on: HUVEC; assay: In vitro cell proliferation assay (MTT), HUVEC; type: cell-based; conditions: Homo sapiens, 72 h, read-out: EC50, anti-proliferative activity
In short: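 HUVEC cells were plated at 1×10^4 cells per well in 96-well plates and exposed in duplicate to increasing compound concentrations from 10 nM to 3 μM for 72 hr. Proliferation was then quantified with MTT (3[4,5-dimethylthiazol-2-yl]-2,5-diphenyltetrazolium bromide) to determine anti-proliferative activity.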

[6] = tested on: HuH7 cell line; assay: In vitro cell proliferation assay (MTT), HuH7; type: cell-based; conditions: Homo sapiens, Huh-7, 72 h; read-out: EC50, anti-proliferative activity
In short: as §3

[7] = tested on: HuH6 Clone 5 cell line; assay: In vitro cell proliferation assay (MTT), HuH6 Clone 5; type: cell-based; conditions: HUH-6-clone5, 72 h; read-out: EC50, anti-proliferative activity
Procedure: as §1, §2

[8] = tested on: HRMEC cells; assay: In vitro cell proliferation assay (MTT), HRMEC; type: cell-based; conditions: 72 h, read-out: EC50, anti-proliferative activity
Procedure: as §1, §2

[9] = tested on: HeLa cell line; assay: In vitro cell proliferation assay (MTT), HeLa; type: cell-based; conditions: Homo sapiens, 72 h, read-out: EC50, anti-proliferative activity
In short: as §3

[10] = tested on: A549 cell line; assay: In vitro cell proliferation assay (MTT), A549; type: cell-based; conditions: Homo sapiens, A549, 72 h; read-out: EC50, anti-proliferative activity
In short: as §3

[11] = tested on: PC3 cell line; assay: In vitro cell proliferation assay (MTT), PC3; type: cell-based; conditions: Homo sapiens, PC-3, 72 h; read-out: EC50, anti-proliferative activity
Procedure: as §1, §2

[12] = tested on: HepG2 cell line; assay: In vitro cell proliferation assay (MTT), HepG2; type: cell-based; conditions: Homo sapiens, HepG2, 72 h; read-out: EC50, anti-proliferative activity
In short: as §3

[13] = target: T2, PDGFRA (PDGFR alpha) (Homo sapiens, UniProt P16234); assay: In vitro kinase assay (Z'-LYTE), PDGFRA; type: biochemical; conditions: read-out: % of inhibition of the kinase compared to the control
T2 construct: purchased Invitrogen
T2 sequence (P16234 24-1089): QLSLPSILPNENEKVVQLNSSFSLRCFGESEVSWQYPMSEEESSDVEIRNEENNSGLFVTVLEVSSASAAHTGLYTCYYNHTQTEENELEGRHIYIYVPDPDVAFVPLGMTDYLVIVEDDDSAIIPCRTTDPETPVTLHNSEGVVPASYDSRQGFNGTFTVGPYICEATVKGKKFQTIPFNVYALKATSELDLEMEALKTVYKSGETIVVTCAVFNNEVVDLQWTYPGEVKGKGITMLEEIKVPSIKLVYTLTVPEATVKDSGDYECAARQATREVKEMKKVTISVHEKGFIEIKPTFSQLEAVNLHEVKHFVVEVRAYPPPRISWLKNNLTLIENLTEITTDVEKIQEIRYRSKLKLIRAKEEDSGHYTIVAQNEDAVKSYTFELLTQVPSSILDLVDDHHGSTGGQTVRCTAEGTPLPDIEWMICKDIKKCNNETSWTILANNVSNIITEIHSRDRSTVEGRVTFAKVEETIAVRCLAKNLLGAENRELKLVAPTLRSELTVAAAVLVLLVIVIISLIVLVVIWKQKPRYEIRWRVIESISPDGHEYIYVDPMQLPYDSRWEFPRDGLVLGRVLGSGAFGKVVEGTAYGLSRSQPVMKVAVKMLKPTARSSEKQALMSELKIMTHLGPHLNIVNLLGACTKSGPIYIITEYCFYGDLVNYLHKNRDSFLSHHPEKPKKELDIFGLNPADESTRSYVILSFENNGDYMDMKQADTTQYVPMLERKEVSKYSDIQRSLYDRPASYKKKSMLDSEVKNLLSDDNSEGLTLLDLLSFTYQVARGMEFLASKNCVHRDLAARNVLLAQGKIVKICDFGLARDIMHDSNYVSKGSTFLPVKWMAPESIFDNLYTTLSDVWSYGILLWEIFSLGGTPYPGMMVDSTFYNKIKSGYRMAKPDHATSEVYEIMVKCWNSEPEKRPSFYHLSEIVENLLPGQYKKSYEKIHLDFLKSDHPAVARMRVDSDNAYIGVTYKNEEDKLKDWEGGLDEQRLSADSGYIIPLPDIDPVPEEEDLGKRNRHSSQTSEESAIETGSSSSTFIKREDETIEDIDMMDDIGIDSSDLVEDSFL
In short: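 Inhibition read as emission ratio (donor/acceptor, 400 nm excitation) of a FRET-labelled peptide, phosphorylation protecting it from proteolytic cleavage. Compounds tested once at 100 nM for VEGFR1 and PDGFRA, at 10 μM for ABL and ABL T315I, 1% DMSO final. ATP at previously determined apparent Km.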

[14] = target: T3, KDR (VEGFR2) (Homo sapiens, UniProt P35968); assay: In vitro kinase assay (Z'-LYTE), KDR (VEGFR2); type: biochemical; conditions: read-out: % of inhibition of the kinase compared to the control
T3 construct: purchased Invitrogen
In short: as §4

[15] = target: T4, EGFR (ErbB1) T790M L858R (Homo sapiens, UniProt P00533, L858R/T790M); assay: In vitro kinase assay (Z'-LYTE), EGFR (ErbB1) T790M L858R; type: biochemical; conditions: read-out: % of inhibition of the kinase compared to the control
T4 construct: purchased Invitrogen
T4 sequence (P00533 25-1210 T790M/L858R): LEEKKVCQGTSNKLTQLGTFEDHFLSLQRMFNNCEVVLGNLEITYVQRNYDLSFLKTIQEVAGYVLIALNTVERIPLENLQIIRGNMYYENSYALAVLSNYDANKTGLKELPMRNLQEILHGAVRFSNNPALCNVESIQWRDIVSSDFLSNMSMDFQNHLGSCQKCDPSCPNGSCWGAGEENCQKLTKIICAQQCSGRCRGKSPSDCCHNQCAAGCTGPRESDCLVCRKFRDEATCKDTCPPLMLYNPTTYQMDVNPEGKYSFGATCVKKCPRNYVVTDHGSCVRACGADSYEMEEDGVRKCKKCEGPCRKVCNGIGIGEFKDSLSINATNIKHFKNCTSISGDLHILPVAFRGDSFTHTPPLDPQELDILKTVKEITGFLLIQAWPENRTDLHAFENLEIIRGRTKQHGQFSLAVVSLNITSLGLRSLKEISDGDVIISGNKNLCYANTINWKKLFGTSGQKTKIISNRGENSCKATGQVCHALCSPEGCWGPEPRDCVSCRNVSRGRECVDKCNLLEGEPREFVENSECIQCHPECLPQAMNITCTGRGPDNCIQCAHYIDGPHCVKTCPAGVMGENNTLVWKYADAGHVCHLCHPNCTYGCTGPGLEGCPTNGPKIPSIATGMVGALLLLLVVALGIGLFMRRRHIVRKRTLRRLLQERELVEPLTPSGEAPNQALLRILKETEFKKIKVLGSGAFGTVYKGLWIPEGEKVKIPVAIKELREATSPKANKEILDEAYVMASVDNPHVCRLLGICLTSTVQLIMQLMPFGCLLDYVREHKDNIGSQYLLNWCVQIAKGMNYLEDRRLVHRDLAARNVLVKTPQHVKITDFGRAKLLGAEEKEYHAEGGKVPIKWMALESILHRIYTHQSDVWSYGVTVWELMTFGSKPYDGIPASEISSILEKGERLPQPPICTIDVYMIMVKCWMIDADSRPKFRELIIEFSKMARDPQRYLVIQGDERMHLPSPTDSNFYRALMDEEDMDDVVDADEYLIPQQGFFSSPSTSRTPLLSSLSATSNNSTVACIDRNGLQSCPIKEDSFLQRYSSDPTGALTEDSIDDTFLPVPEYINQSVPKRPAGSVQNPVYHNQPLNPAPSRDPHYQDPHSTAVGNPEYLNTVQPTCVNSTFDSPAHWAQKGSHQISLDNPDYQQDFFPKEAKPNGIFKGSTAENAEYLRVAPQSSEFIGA
In short: as §4

[16] = target: T5, EGFR (ErbB1) (Homo sapiens, UniProt P00533); assay: In vitro kinase assay (Z'-LYTE), EGFR (ErbB1); type: biochemical; conditions: read-out: % of inhibition of the kinase compared to the control
T5 construct: purchased Invitrogen
T5 sequence (P00533 25-1210): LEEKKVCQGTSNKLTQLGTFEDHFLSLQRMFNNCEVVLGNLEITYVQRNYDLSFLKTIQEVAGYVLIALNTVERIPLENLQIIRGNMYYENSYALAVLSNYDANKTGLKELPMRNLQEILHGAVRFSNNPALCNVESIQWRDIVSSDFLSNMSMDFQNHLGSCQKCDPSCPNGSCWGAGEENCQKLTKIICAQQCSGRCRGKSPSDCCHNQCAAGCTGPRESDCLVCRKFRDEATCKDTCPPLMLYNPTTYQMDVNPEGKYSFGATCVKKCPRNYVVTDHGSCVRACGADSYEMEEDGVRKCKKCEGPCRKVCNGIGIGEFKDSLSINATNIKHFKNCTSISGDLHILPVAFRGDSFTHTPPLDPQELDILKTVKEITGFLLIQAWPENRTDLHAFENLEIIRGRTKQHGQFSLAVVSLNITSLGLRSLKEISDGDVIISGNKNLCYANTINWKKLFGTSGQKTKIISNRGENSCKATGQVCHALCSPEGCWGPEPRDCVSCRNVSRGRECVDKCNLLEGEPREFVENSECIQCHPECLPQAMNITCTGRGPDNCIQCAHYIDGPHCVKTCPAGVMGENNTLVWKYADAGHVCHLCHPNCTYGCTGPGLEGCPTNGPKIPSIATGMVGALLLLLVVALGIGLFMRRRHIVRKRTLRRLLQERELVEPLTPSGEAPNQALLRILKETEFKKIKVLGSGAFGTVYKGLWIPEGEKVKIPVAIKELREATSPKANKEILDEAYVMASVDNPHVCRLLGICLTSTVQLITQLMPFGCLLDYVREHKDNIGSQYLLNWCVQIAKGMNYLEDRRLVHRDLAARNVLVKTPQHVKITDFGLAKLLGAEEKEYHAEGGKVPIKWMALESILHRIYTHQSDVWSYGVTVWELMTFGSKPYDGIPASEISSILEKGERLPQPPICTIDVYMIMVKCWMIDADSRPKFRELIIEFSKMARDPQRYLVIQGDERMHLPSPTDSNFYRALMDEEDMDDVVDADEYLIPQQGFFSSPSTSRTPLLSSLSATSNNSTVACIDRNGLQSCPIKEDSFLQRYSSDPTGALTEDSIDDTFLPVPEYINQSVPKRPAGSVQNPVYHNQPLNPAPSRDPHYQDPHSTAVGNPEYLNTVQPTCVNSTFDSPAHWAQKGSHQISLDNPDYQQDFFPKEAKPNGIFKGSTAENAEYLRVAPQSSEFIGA
In short: as §4

[17] = target: T6, FGFR2 (Homo sapiens, UniProt P21802); assay: In vitro kinase assay (Z'-LYTE), FGFR2; type: biochemical; conditions: read-out: % of inhibition of the kinase compared to the control
T6 construct: purchased Invitrogen
T6 sequence (P21802 22-821): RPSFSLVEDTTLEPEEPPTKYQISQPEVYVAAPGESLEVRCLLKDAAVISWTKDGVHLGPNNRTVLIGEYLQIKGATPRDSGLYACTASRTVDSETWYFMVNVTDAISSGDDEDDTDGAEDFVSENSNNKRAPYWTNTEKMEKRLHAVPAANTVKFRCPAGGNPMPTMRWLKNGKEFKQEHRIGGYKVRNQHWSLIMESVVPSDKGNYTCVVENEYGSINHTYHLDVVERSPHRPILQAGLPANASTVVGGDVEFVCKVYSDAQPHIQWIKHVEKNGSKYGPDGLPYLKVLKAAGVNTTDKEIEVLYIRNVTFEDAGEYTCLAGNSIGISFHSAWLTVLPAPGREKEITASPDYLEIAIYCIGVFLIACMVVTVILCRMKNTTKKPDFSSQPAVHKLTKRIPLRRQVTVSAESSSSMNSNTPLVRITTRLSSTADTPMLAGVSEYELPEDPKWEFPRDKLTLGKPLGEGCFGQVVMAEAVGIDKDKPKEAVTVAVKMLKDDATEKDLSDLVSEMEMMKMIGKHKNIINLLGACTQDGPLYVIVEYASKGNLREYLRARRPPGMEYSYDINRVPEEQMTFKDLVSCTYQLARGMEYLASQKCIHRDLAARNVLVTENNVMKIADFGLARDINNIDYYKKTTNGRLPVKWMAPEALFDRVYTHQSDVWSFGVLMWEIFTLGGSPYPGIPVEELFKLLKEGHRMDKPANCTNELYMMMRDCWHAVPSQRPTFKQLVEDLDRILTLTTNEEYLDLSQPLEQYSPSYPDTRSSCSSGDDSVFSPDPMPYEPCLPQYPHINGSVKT
In short: as §4

[18] = tested on: HuCCT1 cell line; assay: In vitro cell proliferation assay (MTT), HuCCT1; type: cell-based; conditions: Homo sapiens, HuCCT-1, 72 h; read-out: EC50, anti-proliferative activity
In short: as §3

[19] = tested on: HepG2 cells; assay: Human hepatocellular carcinoma mouse model (HepG2 xenograft); type: in vivo, athymic nude male mice; conditions: 20 mg/kg q.d. per os for 15 consecutive days
Procedure: 3) In Vivo Studies (Table 36)
Human hepatocellular carcinoma mouse model was prepared by subcutaneously implanting HepG2 cells (1×10^7 cell/mL in sterile PBS), into the right flank of athymic nude male mice (HSD, 6-7 weeks old). When the tumor volume reached approximately 200 mm^3, mice were assigned randomly to either vehicle alone or ORB compounds treatment groups (six mice per group). Mice were treated with either vehicle (PEG400) or OR0720, OR0721, OR0811 (20 mg/kg q.d.; per os for 15 consecutive days).
Tumor volumes in mm^3 were determined three times a week with a digital caliper and calculated using the following formula: Tumor Volume (mm)=length (mm)×width (mm)×width (mm)×½. Body weight was measured three times a week, and mice were observed daily for monitoring signs of stress to detect possible toxicities. One-way ANOVA was used for statistical comparisons. Data were analyzed with Prism 5.0 b (GraphPad Software) by one-way ANOVA with Bonferroni post hoc. Tumor Growth Inhibition (TGI) is calculated as the percent decrease of tumor growth at the end of the study in the ORB compounds treatment groups in comparison to the vehicle alone treatment group.

[20] = tested on: Caki-2; assay: In vitro cell proliferation assay (MTT), Caki-2; type: cell-based; conditions: Homo sapiens, CAKI-2, 72 h; read-out: EC50, anti-proliferative activity
Procedure: as §1, §2

[21] = tested on: HT29 cell line; assay: In vitro cell proliferation assay (MTT), HT29; type: cell-based; conditions: Homo sapiens, HT-29, 72 h; read-out: EC50, anti-proliferative activity
In short: as §3

[22] = target: T7, SRC (Homo sapiens, UniProt P12931); assay: In vitro kinase assay (Z'-LYTE), SRC; type: biochemical; conditions: read-out: % of inhibition of the kinase compared to the control
T7 construct: purchased Invitrogen
In short: as §4

With CC(=O)c1cc2cc(NCc3cc(NC(=O)c4ccc(CN5CCN(C)CC5)c(C(F)(F)F)c4)ccc3C)cnc2[nH]1 [OR0720, N-{3-[(2-Acetyl-1H-pyrrolo[2,3-b]pyridin-5-ylamino)-methyl]-4-methyl-phenyl}-4-(4-methyl-piperazin-1-ylmethyl)-3-trifluoromethyl-benzamide] the EC50 [1] was ≤ 100 nM, the EC50 [2] was ≤ 100 nM and the inhibition at 0.1 µM [3] was ≥ 50%. For the same molecule, the EC50 [4] was 100 to 1000 nM, the EC50 [5] was ≤ 100 nM and the EC50 [6] was 100 to 1000 nM. For the same molecule, the EC50 [7] was 100 to 1000 nM, the EC50 [8] was ≤ 100 nM and the EC50 [9] was 100 to 1000 nM. The EC50 [10] was ≤ 100 nM, the EC50 [11] was ≤ 100 nM and the EC50 [12] was ≤ 100 nM. For the same molecule, the inhibition at 0.1 µM [13] was ≥ 50%, the inhibition at 0.1 µM [14] was ≥ 50% and the inhibition at 0.1 µM [15] was ≥ 50%. The inhibition at 0.1 µM [16] was ≥ 50%, the inhibition at 0.1 µM [17] was ≥ 50% and the EC50 [18] was 100 to 1000 nM. For the same molecule, the “tumor growth in xenografted mice bearing human hepatocellular carcinoma tumors” value [19] was “significantly induced a decrease of tumor growth”, the “Anti-tumor activity (Tumor Growth Inhibition—TGI)” value ([19]; mice, HepG2 xenograft, end of study vs vehicle) was 66%* and the EC50 [20] was 100 to 1000 nM. For the same molecule, the EC50 [21] was ≤ 100 nM and the inhibition at 0.1 µM [22] was ≥ 50%.
